Test results reported in paper PMC9402538, “Rational design of a sensitivity-enhanced tracer for discovering efficient APC–Asef inhibitors” (Nature Communications, 2022).
Where two headings read alike, the source gives them in different places. Where a SMILES comes first, the peptide text is derived from it. [ ]: non-standard residue; d: D form. The star is where a group is joined. Cyclohexanecarbonyl = O=C(C1CCCCC1)*; Cyclopentanecarbonyl = O=C(C1CCCC1)*; Benzoyl(4-OMe) = COc1ccc(C(=O)*)cc1; Benzoyl(4-Me) = Cc1ccc(C(=O)*)cc1; Ala(cPr) = N[C@@H](CC1CC1)C(=O)O; Oxazole2carbonyl = O=C(c1ncco1)*; Cha = N[C@@H](CC1CCCCC1)C(=O)O; Isonicotinoyl = O=C(c1ccncc1)*; hLeu = CC(C)CC[C@H](N)C(=O)O; Nicotinoyl = O=C(c1cccnc1)*; 2Furoyl = O=C(c1ccco1)*; Acryloyl = C=CC(=O)*; X3 = O=C(c1ccncn1)*; Mpa = O=C(O)CCS

Molecular target: T1, APC (303–739) (Homo sapiens, UniProt P25054)
T1 sequence (P25054 303-739): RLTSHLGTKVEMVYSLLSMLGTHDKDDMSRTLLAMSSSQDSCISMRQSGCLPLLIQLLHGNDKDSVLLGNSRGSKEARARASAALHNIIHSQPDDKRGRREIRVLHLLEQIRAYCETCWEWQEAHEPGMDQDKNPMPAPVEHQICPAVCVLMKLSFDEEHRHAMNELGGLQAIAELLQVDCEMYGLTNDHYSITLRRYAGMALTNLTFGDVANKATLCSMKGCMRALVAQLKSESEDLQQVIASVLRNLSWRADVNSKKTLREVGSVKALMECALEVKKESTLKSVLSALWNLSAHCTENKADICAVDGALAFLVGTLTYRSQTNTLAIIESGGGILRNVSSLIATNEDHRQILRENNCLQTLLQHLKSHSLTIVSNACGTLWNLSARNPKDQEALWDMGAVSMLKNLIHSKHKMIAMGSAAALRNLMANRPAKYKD
Experiment: FP competitive assay using tracer 7
Format: binding
Method: FITC-labeled tracer peptides were obtained from Changzhou Kanglong Biotech Ltd. (Changzhou, Jiangsu, China). […]. The FP signal changes upon tracer binding were measured after 1.5 h of incubation using a Synergy neo microplate reader (BioTek Instruments, Inc.) and plotted against the protein concentration. The corresponding EC50 values were generated by fitting the curves with a nonlinear regression model. […]. To make a working solution, APC (303–739) was diluted in FP buffer (50 mM HEPES, pH 7.5, 300 mM NaCl, 1 mM EDTA, 1 mM DTT). The diluted APC protein (91 μL) was combined with a serial dilution of peptides (4 μL) and incubated at room temperature for 1 h, followed by the addition of 5 μL of 400 nM tracer 7. The FP signals were measured after 1.5 h of incubation at room temperature using a Synergy neo microplate reader. Three controls were included on each plate, i.e., blank (without protein and tracer), 100% inhibition (free tracer only), and 0% inhibition (protein/tracer complex only) controls. All experiments were performed in triplicate. The IC50 values of peptides were calculated by nonlinear regression analysis using GraphPad Prism 7.0 software.

[1] = Supplementary Table 4, read-out: IC50, Tracer 7
[2] = Repeat 1, Table 3 source data, read-out: IC50(μM) Repeat 1
[3] = Repeat 2, Table 3 source data, read-out: IC50(μM) Repeat 2
[4] = Repeat 3, Table 3 source data, read-out: IC50(μM) Repeat 3
[5] = mean of 3 repeats, Table 3 source data, read-out: IC50(μM) mean
[6] = tracer 7, mean of three repeats, read-out: IC50 mean
[7] = tracer 7, read-out: IC50 Repeat 1
[8] = tracer 7, read-out: IC50 Repeat 2
[9] = tracer 7, read-out: IC50 Repeat 3

Row | Compound | IC50 [1] [µM] | IC50 [2] [µM] | IC50 [3] [µM] | IC50 [4] [µM] | IC50 [5] [µM] | IC50 [6] [µM] | IC50 [7] [µM] | IC50 [8] [µM] | IC50 [9] [µM]
1 | CC(C)C[C@H](NC(=O)[C@H](CO)NC(=O)[C@H](CCC(=O)O)NC(=O)CNC(=O)[C@H](C)NC(=O)c1ncco1)C(=O)N[C@@H](Cc1ccc(O)cc1)C(=O)N[C@@H](CCC(=O)O)C(N)=O [MAI-455] (Oxazole2carbonyl-AGESLYE-NH2) | 0.86 ± 0.03 | – | – | – | – | – | – | – | –
2 | CC(C)C[C@H](NC(=O)[C@H](CO)NC(=O)[C@H](CCC(=O)O)NC(=O)CNC(=O)[C@H](C)NC(=O)c1ccncn1)C(=O)N[C@@H](Cc1ccc(O)cc1)C(=O)N[C@@H](CCC(=O)O)C(N)=O [MAI-464] (X3-AGESLYE-NH2) | 0.22 ± 0.01 | – | – | – | – | – | – | – | –
3 | C=CC(=O)N[C@@H](C)C(=O)NCC(=O)N[C@@H](CCC(=O)O)C(=O)N[C@@H](CO)C(=O)N[C@@H](CC(C)C)C(=O)N[C@@H](Cc1ccc(O)cc1)C(=O)N[C@@H](CCC(=O)O)C(N)=O [MAI-501] (Acryloyl-AGESLYE-NH2) | – | 29.9 | 19.1 | 22 | 23.7 | – | – | – | –
4 | CC(C)C[C@H](NC(=O)[C@H](CO)NC(=O)[C@H](CCC(=O)O)NC(=O)CNC(=O)[C@H](C)NC(=O)CCS)C(=O)N[C@@H](Cc1ccc(O)cc1)C(=O)N[C@@H](CCC(=O)O)C(N)=O [MAI-502] ([Mpa]AGESLYE-NH2) | – | 2.46 | 1.52 | 2.21 | 2.06 | – | – | – | –
5 | CC(C)C[C@H](NC(=O)[C@H](CO)NC(=O)[C@H](CCC(=O)O)NC(=O)CNC(=O)[C@H](C)NC(=O)C1CCCC1)C(=O)N[C@@H](Cc1ccc(O)cc1)C(=O)N[C@@H](CCC(=O)O)C(N)=O [MAI-503] (Cyclopentanecarbonyl-AGESLYE-NH2) | – | 7.09 | 5.22 | 5.07 | 5.79 | – | – | – | –
6 | CC(C)C[C@H](NC(=O)[C@H](CO)NC(=O)[C@H](CCC(=O)O)NC(=O)CNC(=O)[C@H](C)NC(=O)C1CCCCC1)C(=O)N[C@@H](Cc1ccc(O)cc1)C(=O)N[C@@H](CCC(=O)O)C(N)=O [MAI-504] (Cyclohexanecarbonyl-AGESLYE-NH2) | – | 2.24 | 1.66 | 1.59 | 1.83 | – | – | – | –
7 | CC(C)C[C@H](NC(=O)[C@H](CO)NC(=O)[C@H](CCC(=O)O)NC(=O)CNC(=O)[C@H](C)NC(=O)c1ccco1)C(=O)N[C@@H](Cc1ccc(O)cc1)C(=O)N[C@@H](CCC(=O)O)C(N)=O [MAI-506] (2Furoyl-AGESLYE-NH2) | – | 0.323 | 0.419 | 0.457 | 0.4 | – | – | – | –
8 | CC(C)C[C@H](NC(=O)[C@H](CO)NC(=O)[C@H](CCC(=O)O)NC(=O)CNC(=O)[C@H](C)NC(=O)c1cccnc1)C(=O)N[C@@H](Cc1ccc(O)cc1)C(=O)N[C@@H](CCC(=O)O)C(N)=O [MAI-513] (Nicotinoyl-AGESLYE-NH2) | – | 0.234 | 0.331 | 0.318 | 0.294 | – | – | – | –
9 | CC(C)C[C@H](NC(=O)[C@H](CO)NC(=O)[C@H](CCC(=O)O)NC(=O)CNC(=O)[C@H](C)NC(=O)c1ccncc1)C(=O)N[C@@H](Cc1ccc(O)cc1)C(=O)N[C@@H](CCC(=O)O)C(N)=O [MAI-514] (Isonicotinoyl-AGESLYE-NH2) | – | 0.116 | 0.128 | 0.0999 | 0.114 | – | – | – | –
10 | Cc1ccc(C(=O)N[C@@H](C)C(=O)NCC(=O)N[C@@H](CCC(=O)O)C(=O)N[C@@H](CO)C(=O)N[C@@H](CC(C)C)C(=O)N[C@@H](Cc2ccc(O)cc2)C(=O)N[C@@H](CCC(=O)O)C(N)=O)cc1 [MAI-515] ({Benzoyl(4-Me)}-AGESLYE-NH2) | – | 0.261 | 0.204 | 0.254 | 0.239 | – | – | – | –
11 | COc1ccc(C(=O)N[C@@H](C)C(=O)NCC(=O)N[C@@H](CCC(=O)O)C(=O)N[C@@H](CO)C(=O)N[C@@H](CCC(C)C)C(=O)N[C@@H](Cc2ccc(O)cc2)C(=O)N[C@@H](CCC(=O)O)C(N)=O)cc1 [MAI-517] ({Benzoyl(4-OMe)}-AGES[hLeu]YE-NH2) | – | – | – | – | – | 0.0247 | 0.0255 | 0.0285 | 0.0202
12 | COc1ccc(C(=O)N[C@@H](C)C(=O)NCC(=O)N[C@@H](CCC(=O)O)C(=O)N[C@@H](CO)C(=O)N[C@@H](CC2CC2)C(=O)N[C@@H](Cc2ccc(O)cc2)C(=O)N[C@@H](CCC(=O)O)C(N)=O)cc1 [MAI-518] ({Benzoyl(4-OMe)}-AGES[Ala(cPr)]YE-NH2) | – | – | – | – | – | 0.0449 | 0.0454 | 0.047 | 0.0424
13 | COc1ccc(C(=O)N[C@@H](C)C(=O)NCC(=O)N[C@@H](CCC(=O)O)C(=O)N[C@@H](CO)C(=O)N[C@@H](CC2CCCCC2)C(=O)N[C@@H](Cc2ccc(O)cc2)C(=O)N[C@@H](CCC(=O)O)C(N)=O)cc1 [MAI-520] ({Benzoyl(4-OMe)}-AGES[Cha]YE-NH2) | – | – | – | – | – | 0.0509 | 0.0544 | 0.0551 | 0.0432
